Results as given in PubChem BioAssay AID256 (DTP/NCI, 2004).
Values joined by “and” are separate entries in the source; they are usually repeats but may differ in a detail not shown here. Identical values can stand only once. Toxic doses and inconclusive results are not listed. The calls were made as follows: active = survival T/C of 150% or more; inactive = T/C below 125% in these data.

Tested on: CD2F1 mice, L1210 leukemia ip, survival T/C
Test: NCI In Vivo Anticancer Drug Screen. Data for tumor model L1210 Leukemia (intraperitoneal) in CD2F1 (CDF1) mice
Details: higher = longer survival
Summary of the method: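 Transplantable tumor in mice; compound-treated vs vehicle-treated groups. Read-out = treated/control ratio of the measured endpoint.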

[1] = endpoint: mean survival time, dose: 100.0 mg/kg/injection, schedule: Q04DX002 (ip), vehicle: saline with Tween-80
[2] = endpoint: mean survival time, dose: 200.0 mg/kg/injection, schedule: Q04DX002 (ip), vehicle: saline with Tween-80
[3] = endpoint: mean survival time, dose: 400.0 mg/kg/injection, schedule: Q04DX002 (ip), vehicle: saline with Tween-80
[4] = endpoint: mean survival time, dose: 50.0 mg/kg/injection, schedule: Q01DX009 (ip), vehicle: saline with Tween-80
[5] = endpoint: mean survival time, dose: 100.0 mg/kg/injection, schedule: Q01DX009 (ip), vehicle: saline with Tween-80
[6] = endpoint: mean survival time, dose: 200.0 mg/kg/injection, schedule: Q01DX009 (ip), vehicle: saline with Tween-80

Measured: T/C

CCOC(=O)/C=C(C)/C=C/C1C(C)=CCCC1(C)C (stereo not drawn)
inactive: [1] 103 % of control | [2] 92 % of control | [3] 100 % of control

O=C1C(Br)C2CCC1C2C(=O)O (stereo not drawn)
inactive: endpoint: mean survival time, dose: 100.0 mg/kg/injection, schedule: Q04DX003 (ip), vehicle: saline with Tween-80 101 % of control | endpoint: mean survival time, dose: 200.0 mg/kg/injection, schedule: Q04DX003 (ip), vehicle: saline with Tween-80 98 % of control | endpoint: mean survival time, dose: 400.0 mg/kg/injection, schedule: Q04DX003 (ip), vehicle: saline with Tween-80 98 % of control

CC(C)N=C(N)c1ccc(NC(=O)c2ccc(C(=O)Nc3ccc(C(N)=NC(C)C)cc3)cc2)cc1
inactive: endpoint: mean survival time, dose: 6.25 mg/kg/injection, schedule: Q01DX Z (ip), vehicle: water 93 % of control

O=C(CCCCC(=O)Nc1ccc(C2=NCCN2)cc1)Nc1ccc(C2=NCCN2)cc1
active: endpoint: mean survival time, dose: 75.0 mg/kg/injection, schedule: Q01DX009 (ip), vehicle: saline 168 % of control | endpoint: mean survival time, dose: 150.0 mg/kg/injection, schedule: Q01DX009 (ip), vehicle: saline 216 % of control | endpoint: mean survival time, dose: 300.0 mg/kg/injection, schedule: Q01DX009 (ip), vehicle: saline 236 % of control

C#CC(C)(C)OC(O)C(Cl)(Cl)Cl (stereo not drawn)
inactive: [1] 91 % of control | [2] 91 % of control | [3] 106 % of control

OCCN=c1c2ccccc2n(O)c2c1ccc1ccccc12
inactive: [4] 104 % of control | [5] 112 % of control | [6] 108 % of control

CC12CCC3C(CC=C4CC(SC(=N)N)CCC43C)C1CCC2=O (stereo not drawn)
inactive: endpoint: mean survival time, dose: 75.0 mg/kg/injection, schedule: Q01DX001 (ip), vehicle: steriod suspending solution 90 % of control | endpoint: mean survival time, dose: 150.0 mg/kg/injection, schedule: Q01DX001 (ip), vehicle: steriod suspending solution 98 % of control | endpoint: mean survival time, dose: 300.0 mg/kg/injection, schedule: Q01DX001 (ip), vehicle: steriod suspending solution 98 % of control

Oc1cc(O)cc(/C=C/c2ccc(O)c(O)c2)c1
inactive: endpoint: median survival time, dose: 6.25 mg/kg/injection, schedule: Q01DX009 (ip), vehicle: DMSO 103 % of control | endpoint: median survival time, dose: 12.5 mg/kg/injection, schedule: Q01DX009 (ip), vehicle: DMSO 109 % of control | endpoint: median survival time, dose: 25.0 mg/kg/injection, schedule: Q01DX009 (ip), vehicle: DMSO 108 % of control and 109 % of control | endpoint: median survival time, dose: 50.0 mg/kg/injection, schedule: Q01DX009 (ip), vehicle: DMSO 108 % of control and 109 % of control | endpoint: median survival time, dose: 100.0 mg/kg/injection, schedule: Q01DX009 (ip), vehicle: DMSO 109 % of control

COc1cc(O)c2c(O)c3c(c4c2c1[C@]1(C4)C(C)=CCCC1(C)C)[C@H](O)[C@@]1(O)CC(=O)C(C(N)=O)=C(O)[C@@]1(O)C3=O
inactive: endpoint: mean survival time, dose: 1.56 mg/kg/injection, schedule: Q01DX009 (ip), vehicle: saline with Tween-80 96 % of control and 101 % of control | endpoint: mean survival time, dose: 3.13 mg/kg/injection, schedule: Q01DX009 (ip), vehicle: saline with Tween-80 98 % of control | endpoint: mean survival time, dose: 6.25 mg/kg/injection, schedule: Q01DX009 (ip), vehicle: saline with Tween-80 104 % of control | endpoint: mean survival time, dose: 12.5 mg/kg/injection, schedule: Q01DX009 (ip), vehicle: saline with Tween-80 114 % of control | endpoint: mean survival time, dose: 16.5 mg/kg/injection, schedule: Q04DX003 (ip), vehicle: saline with Tween-80 98 % of control | endpoint: mean survival time, dose: 25.0 mg/kg/injection, schedule: Q01DX009 (ip), vehicle: saline with Tween-80 119 % of control | endpoint: mean survival time, dose: 25.0 mg/kg/injection, schedule: Q04DX003 (ip), vehicle: saline with Tween-80 102 % of control | endpoint: mean survival time, dose: 37.5 mg/kg/injection, schedule: Q04DX003 (ip), vehicle: saline with Tween-80 111 % of control | [4] 90 % of control

O=C1CCC(=O)O1
inactive: [5] 95 % of control | [6] 102 % of control

CN(C)c1nc(N)nc(-c2cc[n+]([O-])cc2)n1
inactive: endpoint: mean survival time, dose: 100.0 mg/kg/injection, schedule: Q04DX002 (ip), vehicle: saline 103 % of control | endpoint: mean survival time, dose: 200.0 mg/kg/injection, schedule: Q04DX002 (ip), vehicle: saline 88 % of control

C1CNCOC1
inactive: endpoint: mean survival time, dose: 6.25 mg/kg/injection, schedule: Q01DX009 (ip), vehicle: saline 100 % of control | endpoint: mean survival time, dose: 12.5 mg/kg/injection, schedule: Q01DX009 (ip), vehicle: saline 95 % of control and 97 % of control | endpoint: mean survival time, dose: 25.0 mg/kg/injection, schedule: Q01DX009 (ip), vehicle: saline 100 % of control and 102 % of control | endpoint: mean survival time, dose: 50.0 mg/kg/injection, schedule: Q01DX009 (ip), vehicle: saline 101 % of control and 110 % of control | endpoint: mean survival time, dose: 100.0 mg/kg/injection, schedule: Q01DX009 (ip), vehicle: saline 106 % of control and 107 % of control | endpoint: mean survival time, dose: 200.0 mg/kg/injection, schedule: Q01DX009 (ip), vehicle: saline 100 % of control | endpoint: median survival time, dose: 6.25 mg/kg/injection, schedule: Q01DX009 (ip), vehicle: saline 100 % of control | endpoint: median survival time, dose: 12.5 mg/kg/injection, schedule: Q01DX009 (ip), vehicle: saline 102 % of control | endpoint: median survival time, dose: 25.0 mg/kg/injection, schedule: Q01DX009 (ip), vehicle: saline 107 % of control | endpoint: median survival time, dose: 50.0 mg/kg/injection, schedule: Q01DX009 (ip), vehicle: saline 107 % of control | endpoint: median survival time, dose: 100.0 mg/kg/injection, schedule: Q01DX009 (ip), vehicle: saline 112 % of control
